As usually defined, the Kd is the constant that tells how readily two partners part at equilibrium. Low readings indicate a tighter complex, high ones a looser complex.

For the assay, the target named is Rv1466 (Mycobacterium tuberculosis, UniProt O53157). Briefly: biochemical. It counts as binding.
Sequence of Rv1466 (O53157 entry or part of it): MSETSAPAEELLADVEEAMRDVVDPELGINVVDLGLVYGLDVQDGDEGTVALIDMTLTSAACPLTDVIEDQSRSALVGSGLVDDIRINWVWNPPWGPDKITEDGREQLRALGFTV

`O=C1C=C[C@@H]2O[C@H](c3ccccc3)[C@@H](O)[C@@H]2O1` [altholactone] displayed a Kd of 42 ± 6.1 µM.

The record behind these values is publication PMC7288112 (Molecules, 2020).
